Experimental data from US10308592B2 (priority 2014, dated 2019).
Like-named read-outs stand apart in the source and are kept apart here.

Legend:
rats = conditions: rat, in vivo, po, 300 mg/kg
in vivo = conditions: rat, po, 300 mg/kg
rat [1] = conditions: in vivo
rat [2] = conditions: in vivo; cited from earlier work
mouse [3] = conditions: in vivo, inhaled or intranasal
mouse [4] = conditions: in vivo; cited from earlier work
male Sprague-Dawley rats = conditions: rat, in vivo
[5] = male, Sprague-Dawley, rat

## FC(F)C(F)(F)COC(F)(F)C(F)N1C(F)(F)C(F)(F)OC(F)(F)C1(F)F (centres unmarked) [Example 2, 2,2,3,3,5,5,6,6-octafluoro-4-[1,2,2-trifluoro-2-(2,2,3,3-tetrafluoropropoxy)ethyl]morpholine]
rats
  Adverse clinical observations during post dose recovery period: No adverse clinical observations were noted
  Necropsy results: normal for all animals
In vivo
  LD50: > 300 mg/kg

## COC(F)(F)C(F)C(F)(F)F (centres unmarked) [301-monohydride, CF3CFHCF2OCH3]
Rat [1]
  LC50 (LD50) data - inhalation: LC50 >10,000 ppm
Rat [1]; inhaled or intranasal
  NOAEL/NOEL data: NOAEL by inference: <10,000 ppm (rat

## FC(F)C(F)(F)OCC(F)(F)F [AE-3000, CF3CH2OCF2CF2H]
Rat [2]
  LC50 (LD50) data - inhalation: LC50 3010 ppm

## COC(F)(F)C(C(F)(F)F)C(F)(F)F [OIME, (CF3)2CHCF2OCH3]
Mouse [3]
  NOAEL/NOEL data: NOAEL by inference: <660 ppm (mouse,
Mouse [4]
  LC50 (LD50) data - inhalation: LC50 660 ppm

## COC(F)(F)C(F)N1C(F)(F)C(F)(F)OC(F)(F)C1(F)F (centres unmarked) [Example 1, 2,2,3,3,5,5,6,6-octafluoro-4-(1,2,2-trifluoro-2-methoxy-ethyl)morpholine]
Male Sprague-Dawley rats; male, Sprague-Dawley
  LC50 (LD50) data - inhalation: LC50 >5000 ppm
Male Sprague-Dawley rats
  4 hour LC-50: > 5000 ppm (v/v)
  Clinical observations, body or organ weight effects: no significant clinical observations or body or organ weight effects were noted
  Survival and appearance during 14 day post dose recovery period: All animals survived and appeared normal
Male Sprague-Dawley rats; inhaled or intranasal
  NOAEL (No Observable Adverse Effect Level): > 5000 ppm (v/v)
  NOAEL/NOEL data: NOEL: NOEL >5000 ppm
[5]
  Acute Vapor Hazard Ratio: 4
physchem
  chromatographic logP: 4.46

## CC(OC(F)(F)C(F)C(F)(F)F)C(F)(F)C(F)C(F)(F)F (centres unmarked) [Novec 7600, CF3CFHCF2CH(CH3)OCF2CFHCF3]
Rat [1]; inhaled or intranasal
  NOAEL/NOEL data: NOEL: 29d) <500 ppm
